Experimental data reported in patent US10351871B2, “Desaturases and methods of using them for synthesis of polyunsaturated fatty acids” (Washington State University, priority 1998, dated 2019).

Experiments:
[1] = molecular target: T1, Euglena Δ^8-desaturase (EFD1) (Euglena gracilis, UniProt Q9SWQ9); type: cell-based; conditions: for desaturated share of the total incorporated 20-carbon fatty acid: S. cerevisiae with pYES2-541, 2% galactose, 0.2 mM fatty acid soap, overnight at 28° C.; for substrate preference over 20:1: EFD1 expressed in yeast; for desaturation of Δ^5 and Δ^6 substrates by EFD1 (in words): S. cerevisiae with pYES2-541, medium supplemented with the fatty acid
T1 construct: The resulting yeast expression construct containing the open reading frame under the control of a galactose-inducible promoter was designated pYES2-541; expressed in transfected cells; host or cells: Saccharomyces cerevisiae INVSc1, plasmid pYES2-541 (GAL1 promoter)
T1 sequence (Q9SWQ9 other isoform, or with tags, fused parts or gaps with the stated changes): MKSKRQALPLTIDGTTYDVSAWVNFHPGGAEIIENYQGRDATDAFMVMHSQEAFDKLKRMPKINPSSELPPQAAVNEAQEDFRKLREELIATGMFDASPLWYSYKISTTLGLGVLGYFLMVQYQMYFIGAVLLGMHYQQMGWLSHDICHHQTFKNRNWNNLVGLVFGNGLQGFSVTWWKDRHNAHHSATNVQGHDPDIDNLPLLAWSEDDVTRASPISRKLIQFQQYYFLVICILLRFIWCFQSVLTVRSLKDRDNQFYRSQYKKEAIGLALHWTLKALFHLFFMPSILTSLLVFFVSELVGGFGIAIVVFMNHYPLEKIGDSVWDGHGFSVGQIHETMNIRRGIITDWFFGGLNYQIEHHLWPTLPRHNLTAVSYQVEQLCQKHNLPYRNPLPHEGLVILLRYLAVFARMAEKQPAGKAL
Excerpt: For E. gracilis, the cloned Δ^8 gene was transferred to the yeast expression vector pYES2 (Invitrogen, Carlsbad, Calif.) by standard cloning techniques (Ausubel, Current Protocols In Molecular Biology, 1988) using enzymes obtained from New England Biolabs, Beverly, Mass. The resulting yeast expression construct containing the open reading frame under the control of a galactose-inducible promoter was designated pYES2-541.
Saccharomyces cerevisiae strain INVSc1 (Invitrogen) was transformed with pYES2-541 and cultured using standard methods (Ausubel, Current Protocols In Molecular Biology, 1988). Liquid medium containing 2% galactose was supplemented with fatty acid soaps (NuCheck Prep, Elysian Minn.) at a final concentration of 0.2 mM. Tergitol (1%, NP40) was added to the yeast cultures to enhance fatty acid uptake (Stukey et al., J. Biol. Chem. 264:16537-16544, 1989), except for cultures containing 20:1, where 5% DMSO was substituted. Yeast were incubated overnight at 28° C., harvested by centrifugation, washed once with 1% Tergitol, once with 0.5% Tergitol, and finally once with distilled water.
(§1) Extraction of lipids and preparation of fatty acid methyl esters was carried out by standard methods (Miguel and Browse, J. Biol. Chem. 267:1502-1509, 1992). Gas chromatography of the methyl esters was conducted by established methods (Spychalla et al., Proc. Natl. Acad. Sci. USA 94:1142-1147, 1997). Fatty acid 4,4-Dimethyloxazoline (DMOX) derivatives of yeast lipid extracts were prepared by standard methods (Fay and Richli, J. Chromatogr. 541:89-98, 1991). GC-mass spectrometry was conducted on a Hewlett-Packard 6890 series GC-MS fitted with a 30 m×[…] HPSMS column, operating at an ionization voltage of 70 eV with a scan range of 50-550 Da. Fatty acids and their derivatives were identified where possible by comparison with authentic standards (NuCheck Prep).
To confirm the activity of the enzyme, the EFD1 cDNA was transferred from pJW541 to yeast expression vector pYES2 under the control of a galactose-inducible promoter. The resulting construct, pYES2-541, was introduced into S. cerevisiae. […] Accordingly, yeast cultures were supplemented with various fatty acid soaps, using a yeast strain containing the empty vector as control, and analyzed the fatty acids of the cultures by methyl-ester derivatization and gas chromatography.

[2] = molecular target: T2, C. elegans Δ^5-desaturase (FAT-4) (Caenorhabditis elegans, UniProt G5EG11); test: C. elegans FAT-4 (pYES2, fat-4) expressed in yeast fed fatty acid substrates, GC analysis; type: cell-based; conditions: for activity of FAT-4 on substrate (in words): yeast expressing FAT-4, substrate fed; for substrate converted to desaturation product: yeast expressing FAT-4, 2% galactose, 0.2 mM fatty acid, 16 hours, 18:1 is endogenous; for amount desaturated relative to conventional substrate 20:3Δ^8,11,14: yeast expressing the C. elegans Δ^5-desaturase gene
T2 construct: The resulting peptide length was 447 amino acids instead of the previously predicted 454 amino acids; expressed in transfected cells; host or cells: Saccharomyces cerevisiae INVSc1, plasmid pYFAT4 (pYES2, GAL1 promoter)
T2 sequence (G5EG11 1-447): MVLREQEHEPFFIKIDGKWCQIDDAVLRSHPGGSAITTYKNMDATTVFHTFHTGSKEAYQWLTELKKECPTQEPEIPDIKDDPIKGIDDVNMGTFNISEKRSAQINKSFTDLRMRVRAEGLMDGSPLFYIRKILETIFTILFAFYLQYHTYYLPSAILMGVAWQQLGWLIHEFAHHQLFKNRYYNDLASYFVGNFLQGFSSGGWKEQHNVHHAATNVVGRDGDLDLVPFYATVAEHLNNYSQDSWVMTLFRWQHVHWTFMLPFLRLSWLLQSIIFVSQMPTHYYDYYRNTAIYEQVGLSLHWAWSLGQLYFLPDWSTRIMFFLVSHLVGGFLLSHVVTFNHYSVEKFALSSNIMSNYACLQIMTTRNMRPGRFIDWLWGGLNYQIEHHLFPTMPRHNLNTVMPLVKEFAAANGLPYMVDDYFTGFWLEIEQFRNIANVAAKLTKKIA
Experimental: To express the C. elegans Δ^5-desaturase, the fat-4 cDNA amplification product (see Example 3) was digested with HindIII and BamH1 and ligated to the yeast expression vector pYES2 (Invitrogen) cut with HindIII and BamH1. The resulting plasmid was named pYFAT4.
For the C. elegans Δ^5 gene, the constructs were transformed into Saccharomyces cerevisiae strain INVSc1 using the S.c. EasyComp transformation kit (Invitrogen). For experiments with the FAT-4 peptide, transformed yeast were grown overnight in uracil-deficient media containing 2% galactose, 0.2 mM fatty acid, and 1% NP-40.
as §1
To determine the enzymatic activity of the FAT-4 desaturase-like protein, the protein was expressed in Saccharomyces cerevisiae supplemented with polyunsaturated fatty acid substrates that are not normally present in this yeast. The FAT-4 protein was expressed in the yeast expression vector pYES2 from the GAL1 promoter by growing the cells in the presence of galactose and various fatty acids. After 16 hours of growth, the cells were analyzed for total fatty acid composition by gas chromatography (GC).

[3] = molecular target: T3, C. elegans Δ^6-desaturase (FAT-3) (Caenorhabditis elegans, UniProt Q23221); test: C. elegans FAT-3 expressed in yeast (pMK195, ADH promoter), substrate desaturation; type: cell-based; conditions: yeast expressing fat-3 from pMK195
T3 construct: Codons for amino acid residues 38-67 of W08D2.4 were not present in the cDNA; expressed in transfected cells; host or cells: yeast (Saccharomyces cerevisiae), vector pMK195, constitutive ADH promoter
T3 sequence (Q23221 1-443): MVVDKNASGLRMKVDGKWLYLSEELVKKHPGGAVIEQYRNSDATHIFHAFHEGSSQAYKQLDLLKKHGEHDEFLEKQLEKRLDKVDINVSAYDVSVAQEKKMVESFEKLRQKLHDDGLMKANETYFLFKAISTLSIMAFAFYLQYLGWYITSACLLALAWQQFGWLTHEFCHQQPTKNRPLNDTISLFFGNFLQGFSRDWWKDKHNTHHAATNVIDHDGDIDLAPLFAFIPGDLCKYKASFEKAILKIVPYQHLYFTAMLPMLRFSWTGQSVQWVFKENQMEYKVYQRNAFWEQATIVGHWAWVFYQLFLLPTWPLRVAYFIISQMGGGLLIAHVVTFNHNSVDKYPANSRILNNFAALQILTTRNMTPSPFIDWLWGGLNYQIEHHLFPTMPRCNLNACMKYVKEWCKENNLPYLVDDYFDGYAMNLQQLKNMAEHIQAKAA
Excerpt: The fat-3 gene was expressed in the yeast expression vector pMK195 containing the constitutive ADH promoter.

[4] = test system: Δ^5- and Δ^8-desaturases; test: Yeast cell transformed with both Δ^5- and Δ^8-desaturase genes (pYFAT4 + pYX232-541) fed fatty acid substrates, GC; type: cell-based, Saccharomyces cerevisiae; conditions: for One added desaturation / Unconverted substrate: overnight culture at 28° C.; for Doubly desaturated product: products 20:5 (5, 8, 11, 14, 17), 20:4 (5, 8, 11, 14), 20:3 (5, 8, 11)
Excerpt: The cDNA portion of pJW541 (Wallis and Browse, Arch. Biochem. Biophys. 365:307-316, 1999) containing the Euglena Δ^8-desaturase was excised from that plasmid with the restriction enzymes EcoRI and SpeI. The purified DNA fragment representing the insert was ligated into the yeast expression vector pYX232 (R&D Systems, Inc.) that had been prepared by digestion with EcoRI and NheI, to give compatible sticky ends. (Plasmid pYX232 carries the marker conferring yeast prototrophy for tryptophan (TRP1 mutation), and uses the triose phosphate isomerase (TPI) promoter for constitutive expression of the inserted DNA.) The resulting plasmid, pYX232-541, was introduced into the Saccharomyces cerevisiae strain already harboring the Δ^5-desaturase (pYFAT4; Watts and Browse, Arch. Biochem. Biophys. 362:175-182, 1999) plasmid that confers yeast prototrophy for uracil using a lithium acetate transformation procedure (Invitrogen). Transformants were selected simultaneously for uracil and tryptophan prototrophy. Selected colonies arising after the transformation were inoculated into yeast minimal medium that also lacked both uracil and tryptophan.
For analysis of activity, separate cultures were supplemented with one of three fatty acid substrates provided as sodium salts as described (Wallis and Browse, Arch. Biochem. Biophys. 365:307-316, 1999). After overnight culture at 28° C., the cultures were harvested by centrifugation and washed. Fatty acid methyl esters were prepared using the standard methods described in Miguel and Browse J. Biol. Chem. 267:1502-1509, 1992.

[5] = molecular target: T4, Δ^5-desaturase activity in microsomal extracts of mammalian liver (Rattus norvegicus, UniProt Q920R3); conditions: labeled substrate; cited from earlier work
T4 construct: the rates of desaturation in microsomal extracts of mammalian liver; host or cells: microsomal extracts of mammalian liver
T4 sequence (Q920R3 whole entry, stated change not applied): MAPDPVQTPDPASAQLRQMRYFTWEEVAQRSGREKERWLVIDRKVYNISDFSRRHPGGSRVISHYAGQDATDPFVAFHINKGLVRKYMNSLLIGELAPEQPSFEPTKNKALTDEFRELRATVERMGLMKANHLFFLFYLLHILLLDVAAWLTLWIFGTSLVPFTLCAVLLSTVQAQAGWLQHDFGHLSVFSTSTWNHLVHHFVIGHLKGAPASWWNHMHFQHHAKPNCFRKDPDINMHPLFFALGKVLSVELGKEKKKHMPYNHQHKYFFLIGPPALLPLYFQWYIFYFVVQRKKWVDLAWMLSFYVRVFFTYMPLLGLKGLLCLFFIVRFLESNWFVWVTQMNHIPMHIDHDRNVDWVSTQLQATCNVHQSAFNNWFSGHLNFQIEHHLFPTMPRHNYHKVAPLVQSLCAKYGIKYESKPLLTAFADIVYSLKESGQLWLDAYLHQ

| Structure (SMILES) | desaturated share of the total incorporated 20-carbon fatty acid [1] [%] | activity of FAT-4 on substrate (in words) [2] | activity of FAT-3 on substrate (in words) [3] | One added desaturation [4] | Unconverted substrate [4] | Doubly desaturated product [4] | substrate preference over 20:1 [1] | substrate converted to desaturation product [2] [%] | amount desaturated relative to conventional substrate 20:3Δ^8,11,14 [2] | rate of conversion to 20:3Δ^5,11,14 relative to rate of conversion of labeled 20:3Δ^8,11,14 to 20:4Δ^5,8,11,14 [5] [%] | desaturation of Δ^5 and Δ^6 substrates by EFD1 (in words) [1] |
| --- | --- | --- | --- | --- | --- | --- | --- | --- | --- | --- | --- |
| CCCCCCCCC=CCCCCCCCCCC(=O)O [20:1Δ^11] | 32 | No novel peaks were detected | no activity | 18 mass percent of incorporated 20-carbon fatty acids | 72 mass percent of incorporated 20-carbon fatty acids | 11 mass percent of incorporated 20-carbon fatty acids | – | – | – | – | – |
| CCCCCC=CCC=CCCCCCCCCCC(=O)O [20:2Δ^11,14] | 73 | – | no activity | 18 mass percent of incorporated 20-carbon fatty acids | 70 mass percent of incorporated 20-carbon fatty acids | 13 mass percent of incorporated 20-carbon fatty acids | greater than two-fold preference | 27 | less than half | 41 | – |
| CCC=CCC=CCC=CCCCCCCCCCC(=O)O [20:3Δ^11,14,17] | 70 | – | no activity | 17 mass percent of incorporated 20-carbon fatty acids | 71 mass percent of incorporated 20-carbon fatty acids | 11 mass percent of incorporated 20-carbon fatty acids | greater than two-fold preference | 26 | less than half | – | – |
| CCCCC/C=C\C/C=C\C/C=C\CCCCCCC(=O)O [di-homo-γ-linolenic acid] | – | – | no activity | – | – | – | – | 55 | – | – | – |
| CCCCC/C=C\C/C=C\CCCCCCCC(=O)O [linoleic acid] | – | no activity | able to desaturate | – | – | – | – | – | – | – | no desaturation occurred |
| CC/C=C\C/C=C\C/C=C\CCCCCCCC(=O)O [α-linolenic acid] | – | – | capable of desaturating | – | – | – | – | – | – | – | no desaturation occurred |
| CCCCC/C=C\C/C=C\C/C=C\CCCCC(=O)O [γ-linolenic acid] | – | no activity | – | – | – | – | – | – | – | – | – |
